BindingDB's records for doi:10.1021/jm00396a028 (Merck Sharp & Dohme Research Laboratories, 1988)

Test: Displacement of [125I]gastrin from guinea pig gastric glands

| Structure (SMILES) | IC50 |
| --- | --- |
| Cc1nnc2n1-c1ccccc1C(c1ccccc1F)=NC2NC(=O)c1cc2ccccc2[nH]1 (stereo not drawn) [1H-Indole-2-carboxylic acid [6-(2-fluoro-phenyl)-1-methyl-4H-2,3,5,10b-tetraaza-benzo[e]azulen-4-yl]-amide(0.2EtOAc)] | 7 nM |
| O=C(NC1N=C(c2ccccc2F)c2ccccc2-n2cnnc21)OCc1ccccc1 (stereo not drawn) [[6-(2-Fluoro-phenyl)-4H-2,3,5,10b-tetraaza-benzo[e]azulen-4-yl]-carbamic acid benzyl ester] | 3000 nM |
| Fc1ccccc1C1=N[C@H](Cc2c[nH]c3ccccc23)c2nncn2-c2ccccc21 [6-(2-Fluoro-phenyl)-4-(1H-indol-3-ylmethyl)-4H-2,3,5,10b-tetraaza-benzo[e]azulene(0.5CHCl3)] | 25000 nM |
| O=C(NC1N=C(c2ccccc2)c2ccccc2-n2cnnc21)OCc1ccccc1 (stereo not drawn) [(6-Phenyl-4H-2,3,5,10b-tetraaza-benzo[e]azulen-4-yl)-carbamic acid benzyl ester(0.25EtOAc)] | 4800 nM |
| Fc1ccccc1C1=N[C@H](Cc2c[nH]c3ccccc23)c2nnc(-c3ccccc3)n2-c2ccccc21 [6-(2-Fluoro-phenyl)-4-(1H-indol-3-ylmethyl)-1-phenyl-4H-2,3,5,10b-tetraaza-benzo[e]azulene(0.55CHCl3)] | > 100000 nM |
| CN(C)Cc1nnc2n1-c1ccccc1C(c1ccccc1F)=N[C@@H]2Cc1c[nH]c2ccccc12 [[6-(2-Fluoro-phenyl)-4-(1H-indol-3-ylmethyl)-4H-2,3,5,10b-tetraaza-benzo[e]azulen-1-ylmethyl]-dimethyl-amine(0.22CHCl3)] | 60000 nM |
| O=C(NC1N=C(c2ccccc2F)c2ccccc2-n2cnnc21)c1cc2ccccc2[nH]1 (stereo not drawn) [1H-Indole-2-carboxylic acid [6-(2-fluoro-phenyl)-4H-2,3,5,10b-tetraaza-benzo[e]azulen-4-yl]-amide(0.1EtOAc)] | 65 nM |
| O=C(Nc1ccc(Cl)cc1)NC1N=C(c2ccccc2)c2ccccc2-n2cnnc21 (stereo not drawn) [1-(4-Chloro-phenyl)-3-(6-phenyl-4H-2,3,5,10b-tetraaza-benzo[e]azulen-4-yl)-urea] | 380 nM |
| Fc1ccccc1C1=N[C@H](Cc2c[nH]c3ccccc23)c2nnc(C(Cl)(Cl)Cl)n2-c2ccccc21 [6-(2-Fluoro-phenyl)-4-(1H-indol-3-ylmethyl)-1-trichloromethyl-4H-2,3,5,10b-tetraaza-benzo[e]azulene(0.5CHCl3)] | > 100000 nM |
| Cc1nnc2n1-c1ccc(Cl)cc1C(c1ccccc1Cl)=NC2 [Halcion] | > 100000 nM |
| Cc1nnc2n1-c1ccc(Cl)cc1C(c1ccccc1)=NC2 | > 100000 nM |
| O=C(NC1N=C(c2ccccc2F)c2ccccc2-n2cnnc21)c1ccc(Cl)cc1 (stereo not drawn) [4-Chloro-N-[6-(2-fluoro-phenyl)-4H-2,3,5,10b-tetraaza-benzo[e]azulen-4-yl]-benzamide] | 2400 nM |
| Cc1nnc2n1-c1ccccc1C(c1ccccc1)=NC2NC(=O)Nc1ccc(Cl)cc1 (stereo not drawn) [1-(4-Chloro-phenyl)-3-(1-methyl-6-phenyl-4H-2,3,5,10b-tetraaza-benzo[e]azulen-4-yl)-urea] | 380 nM |
